ChEMBL document CHEMBL1909046, “DrugMatrix in vitro pharmacology data”
pIC50, pKi: −log10 of the molar value.

What was measured:
[1] = molecular target: Sodium-dependent noradrenaline transporter (Homo sapiens, UniProt P23975); test: DRUGMATRIX: Norepinephrine Transporter radioligand binding (ligand: [125I] RTI-55); assay type: cell membranes, MDCK, Membrane; conditions: Not Active = under 50% inhibition at 10 µM; for pIC50: read-out: IC50; for pKi: read-out: Ki
[2] = DRUGMATRIX: beta-Lactamase enzyme inhibition (substrate: Nitrocefin); design: species or system Bacillus cereus; conditions: Not Active = under 50% inhibition at 10 µM
[3] = DRUGMATRIX: Sigma2 radioligand binding (ligand: [3H] Ifenprodil); assay type: cell membranes, Rattus norvegicus, Wistar, Brain, Membrane; conditions: Not Active = under 50% inhibition at 10 µM; for pIC50: read-out: IC50; for pKi: read-out: Ki
[4] = molecular target: Vascular endothelial growth factor receptor 1 (Homo sapiens, UniProt P17948); assay type: cell-based; conditions: huvec; further: in other assays of this panel Not Active means under 50% inhibition at 10 µM
Chain of Vascular endothelial growth factor receptor 1 (P17948 whole entry): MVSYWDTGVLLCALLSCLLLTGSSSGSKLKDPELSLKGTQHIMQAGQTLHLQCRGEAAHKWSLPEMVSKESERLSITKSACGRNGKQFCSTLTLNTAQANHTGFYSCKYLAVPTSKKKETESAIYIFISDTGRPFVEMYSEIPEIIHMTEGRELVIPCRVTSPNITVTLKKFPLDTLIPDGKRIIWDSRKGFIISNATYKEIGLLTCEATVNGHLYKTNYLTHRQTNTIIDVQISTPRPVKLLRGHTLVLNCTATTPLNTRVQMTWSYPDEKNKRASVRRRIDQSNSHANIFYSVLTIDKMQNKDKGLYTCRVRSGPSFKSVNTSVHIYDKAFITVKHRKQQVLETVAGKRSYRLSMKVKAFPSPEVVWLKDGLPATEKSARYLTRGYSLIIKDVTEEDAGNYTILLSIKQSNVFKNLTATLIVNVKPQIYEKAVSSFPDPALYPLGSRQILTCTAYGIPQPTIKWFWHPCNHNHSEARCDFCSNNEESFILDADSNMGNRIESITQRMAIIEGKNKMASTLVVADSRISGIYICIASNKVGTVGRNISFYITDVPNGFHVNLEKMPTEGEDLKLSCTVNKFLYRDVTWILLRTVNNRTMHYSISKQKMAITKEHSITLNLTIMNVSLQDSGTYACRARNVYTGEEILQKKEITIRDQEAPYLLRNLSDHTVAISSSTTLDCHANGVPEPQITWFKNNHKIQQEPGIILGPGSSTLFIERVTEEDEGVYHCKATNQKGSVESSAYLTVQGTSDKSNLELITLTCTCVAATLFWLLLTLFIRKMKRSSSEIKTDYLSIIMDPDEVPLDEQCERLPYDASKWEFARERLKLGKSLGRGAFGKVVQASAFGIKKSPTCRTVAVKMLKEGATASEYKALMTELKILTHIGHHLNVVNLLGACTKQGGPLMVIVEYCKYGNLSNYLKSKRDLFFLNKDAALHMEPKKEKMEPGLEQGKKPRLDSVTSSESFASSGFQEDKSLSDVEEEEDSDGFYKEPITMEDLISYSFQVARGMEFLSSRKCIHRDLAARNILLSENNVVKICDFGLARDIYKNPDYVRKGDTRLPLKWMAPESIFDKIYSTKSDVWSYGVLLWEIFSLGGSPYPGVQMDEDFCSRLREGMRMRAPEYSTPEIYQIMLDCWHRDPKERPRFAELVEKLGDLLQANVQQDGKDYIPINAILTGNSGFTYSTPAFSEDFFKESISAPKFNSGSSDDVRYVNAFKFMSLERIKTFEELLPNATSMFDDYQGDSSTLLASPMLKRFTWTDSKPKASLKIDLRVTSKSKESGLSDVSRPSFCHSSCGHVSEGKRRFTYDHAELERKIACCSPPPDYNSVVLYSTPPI

[5] = molecular target: T1, Muscarinic acetylcholine receptor M2 (Homo sapiens, UniProt P08172); assay type: cell membranes, CHO-K1, Membrane; conditions: cho-k1; further: in other assays of this panel Not Active means under 50% inhibition at 10 µM
T1 sequence (P08172 whole entry): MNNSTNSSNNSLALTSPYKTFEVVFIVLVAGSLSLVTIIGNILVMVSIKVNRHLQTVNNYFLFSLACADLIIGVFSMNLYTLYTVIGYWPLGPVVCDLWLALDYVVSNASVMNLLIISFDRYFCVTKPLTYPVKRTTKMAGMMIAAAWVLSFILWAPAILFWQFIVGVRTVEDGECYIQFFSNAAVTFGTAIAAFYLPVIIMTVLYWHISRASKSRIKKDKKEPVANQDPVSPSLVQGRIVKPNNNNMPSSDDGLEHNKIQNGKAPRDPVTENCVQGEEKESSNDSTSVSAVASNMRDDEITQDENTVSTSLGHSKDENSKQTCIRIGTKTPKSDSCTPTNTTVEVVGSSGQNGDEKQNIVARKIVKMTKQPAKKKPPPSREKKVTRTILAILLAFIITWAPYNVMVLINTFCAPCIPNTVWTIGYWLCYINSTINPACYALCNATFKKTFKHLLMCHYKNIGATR

[6] = molecular target: Adenosine receptor A2a (Homo sapiens, UniProt P29274); test: DRUGMATRIX: Adenosine A2A radioligand binding (ligand: […]); assay type: cell membranes, Membrane; conditions: hek293; Not Active = under 50% inhibition at 10 µM
Chain of Adenosine receptor A2a (P29274 whole entry): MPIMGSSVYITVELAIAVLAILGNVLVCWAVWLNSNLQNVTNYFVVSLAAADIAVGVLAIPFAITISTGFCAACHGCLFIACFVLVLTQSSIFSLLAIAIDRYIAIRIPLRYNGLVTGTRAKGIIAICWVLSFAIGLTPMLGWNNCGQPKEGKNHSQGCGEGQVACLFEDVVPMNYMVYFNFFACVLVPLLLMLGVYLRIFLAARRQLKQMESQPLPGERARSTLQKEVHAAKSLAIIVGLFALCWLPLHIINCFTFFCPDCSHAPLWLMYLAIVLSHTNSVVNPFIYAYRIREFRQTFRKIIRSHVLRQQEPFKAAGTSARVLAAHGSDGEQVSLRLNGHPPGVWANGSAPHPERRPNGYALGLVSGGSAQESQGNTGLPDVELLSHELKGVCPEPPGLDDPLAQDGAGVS

Chain of Sodium-dependent noradrenaline transporter (P23975 whole entry): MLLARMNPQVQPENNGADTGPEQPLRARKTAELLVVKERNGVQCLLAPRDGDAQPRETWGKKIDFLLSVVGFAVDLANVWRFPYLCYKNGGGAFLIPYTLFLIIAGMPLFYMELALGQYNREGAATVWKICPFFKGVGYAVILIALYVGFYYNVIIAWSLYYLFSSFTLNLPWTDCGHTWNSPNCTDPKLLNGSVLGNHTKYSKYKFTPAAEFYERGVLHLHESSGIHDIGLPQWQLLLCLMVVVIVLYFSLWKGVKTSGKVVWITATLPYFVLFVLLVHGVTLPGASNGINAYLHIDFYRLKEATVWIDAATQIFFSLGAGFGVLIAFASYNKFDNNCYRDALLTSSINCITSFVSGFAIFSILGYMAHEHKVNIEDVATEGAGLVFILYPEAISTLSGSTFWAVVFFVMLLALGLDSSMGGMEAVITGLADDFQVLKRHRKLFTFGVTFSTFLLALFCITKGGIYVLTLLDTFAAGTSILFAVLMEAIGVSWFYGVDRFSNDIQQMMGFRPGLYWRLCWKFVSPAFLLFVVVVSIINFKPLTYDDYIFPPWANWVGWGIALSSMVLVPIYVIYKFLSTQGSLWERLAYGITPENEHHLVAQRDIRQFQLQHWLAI

Row | SMILES | IC50 ([1]; mdck) | IC50 [2] | Ki [2] | IC50 [3] | Ki [3] | IC50 [4] | IC50 [5] | IC50 [6] | pIC50 [1] | pKi [1] | Ki ([1]; mdck) | Ki [4] | Ki [5] | Ki [6] | pIC50 [3] | pKi [3]
1 | CC(C)CN(C[C@@H](O)[C@H](Cc1ccccc1)NC(=O)O[C@H]1CCOC1)S(=O)(=O)c1ccc(N)cc1 | Not Active | Not Active | Not Active | Not Active | Not Active | Not Active | Not Active | Not Active | – | – | – | – | – | – | – | –
2 | c1ccc(Nc2ccc(Nc3ccccc3)cc2)cc1 | – | Not Active | Not Active | Not Active | Not Active | Not Active | Not Active | Not Active | 6.10 | 6.11 | – | – | – | – | – | –
3 | COc1cc2c3cc1Oc1cc(ccc1O)C[C@@H]1c4c(cc(OC)c(O)c4Oc4ccc(cc4)C[C@@H]3N(C)CC2)CC[N+]1(C)C.[Cl-] | Not Active | Not Active | Not Active | Not Active | Not Active | Not Active | Not Active | Not Active | – | – | – | – | – | – | – | –
4 | NC(=O)N1c2ccccc2CCc2ccccc21 | Not Active | Not Active | Not Active | Not Active | Not Active | Not Active | Not Active | Not Active | – | – | – | – | – | – | – | –
5 | O=C1CC[C@@H](N2C(=O)c3ccccc3C2=O)C(=O)N1 | Not Active | Not Active | Not Active | Not Active | Not Active | Not Active | Not Active | Not Active | – | – | – | – | – | – | – | –
6 | Cc1onc(O)c1CC(N)C(=O)O (racemic) [(R,S)-AMPA] | Not Active | Not Active | Not Active | Not Active | Not Active | Not Active | Not Active | Not Active | – | – | – | – | – | – | – | –
7 | Cc1ccc2cc3c(ccc4ccccc43)c3c2c1CC3 [3-METHYLCHOLANTHRENE] | – | Not Active | Not Active | Not Active | Not Active | Not Active | Not Active | Not Active | 4.53 | 4.53 | – | – | – | – | – | –
8 | CC[C@@]1(O)C[C@H](O[C@H]2C[C@H](N(C)C)[C@H](O[C@H]3C[C@H](O)[C@H](O[C@H]4CCC(=O)[C@H](C)O4)[C@H](C)O3)[C@H](C)O2)c2c(cc3c(c2O)C(=O)c2c(O)cccc2C3=O)[C@H]1C(=O)OC [ACLARUBICIN] | Not Active | Not Active | Not Active | Not Active | Not Active | Not Active | Not Active | Not Active | – | – | – | – | – | – | – | –
9 | Nc1nc2c(ncn2COCCO)c(=O)[nH]1 [ACYCLOVIR] | Not Active | Not Active | Not Active | Not Active | Not Active | Not Active | Not Active | Not Active | – | – | – | – | – | – | – | –
10 | Cc1c(C)c2c(c(C)c1O)CC[C@@](C)(CCC[C@H](C)CCC[C@H](C)CCCC(C)C)O2 [ALPHA-TOCOPHEROL] | Not Active | Not Active | Not Active | Not Active | Not Active | Not Active | Not Active | Not Active | – | – | – | – | – | – | – | –
11 | CN(C)c1nc(N(C)C)nc(N(C)C)n1 [ALTRETAMINE] | Not Active | Not Active | Not Active | Not Active | Not Active | Not Active | Not Active | Not Active | – | – | – | – | – | – | – | –
12 | Nc1c(Br)cc(Br)cc1CN[C@H]1CC[C@H](O)CC1 [AMBROXOL] | Not Active | Not Active | Not Active | Not Active | Not Active | Not Active | Not Active | Not Active | – | – | – | – | – | – | – | –
13 | NCCCCCC(=O)O [AMINOCAPROIC ACID] | Not Active | Not Active | Not Active | Not Active | Not Active | Not Active | Not Active | Not Active | – | – | – | – | – | – | – | –
14 | CCC1(c2ccc(N)cc2)CCC(=O)NC1=O (stereo unspecified) [AMINOGLUTETHIMIDE] | Not Active | Not Active | Not Active | Not Active | Not Active | Not Active | Not Active | Not Active | – | – | – | – | – | – | – | –
15 | Cc1ccc(/N=C/N(C)/C=N/c2ccc(C)cc2C)c(C)c1 [AMITRAZ] | Not Active | Not Active | Not Active | Not Active | Not Active | Not Active | Not Active | Not Active | – | – | – | – | – | – | – | –
16 | CCOC(=O)C1=C(COCCN)NC(C)=C(C(=O)OC)C1c1ccccc1Cl (stereo unspecified) [AMLODIPINE] | Not Active | Not Active | Not Active | Not Active | Not Active | Not Active | Not Active | Not Active | – | – | – | – | – | – | – | –
17 | COc1ccc(C[C@H]2NC[C@H](O)[C@H]2OC(C)=O)cc1 [ANISOMYCIN] | Not Active | Not Active | Not Active | Not Active | Not Active | Not Active | Not Active | Not Active | – | – | Not Active | Not Active | Not Active | Not Active | – | –
18 | Nc1ncn([C@@H]2O[C@H](CO)[C@@H](O)[C@H]2O)c(=O)n1 [AZACITIDINE] | Not Active | Not Active | Not Active | Not Active | Not Active | Not Active | Not Active | Not Active | – | – | – | – | – | – | – | –
19 | CN(C)C(=O)Oc1cc(OC(=O)N(C)C)cc(C(O)CNC(C)(C)C)c1 (stereo unspecified) [BAMBUTEROL] | Not Active | Not Active | Not Active | Not Active | Not Active | Not Active | Not Active | Not Active | – | – | – | – | – | – | – | –
20 | c1ccc2c(c1)c1cccc3ccc4cccc2c4c31 [BENZO[E]PYRENE] | Not Active | Not Active | Not Active | Not Active | Not Active | Not Active | Not Active | Not Active | – | – | – | – | – | – | – | –
21 | CNCCc1ccccn1 [BETAHISTINE] | Not Active | Not Active | Not Active | Not Active | Not Active | Not Active | Not Active | Not Active | – | – | – | – | – | – | – | –
22 | CC(C)C(Br)C(=O)NC(N)=O (stereo unspecified) [BROMISOVALUM] | Not Active | Not Active | Not Active | Not Active | Not Active | Not Active | Not Active | Not Active | – | – | – | – | – | – | – | –
23 | CCCC1O[C@@H]2C[C@H]3[C@@H]4CCC5=CC(=O)C=C[C@]5(C)[C@H]4[C@@H](O)C[C@]3(C)[C@]2(C(=O)CO)O1 (stereo partly specified) [BUDESONIDE] | Not Active | Not Active | Not Active | Not Active | Not Active | Not Active | Not Active | Not Active | – | – | – | – | – | – | – | –
24 | CC(NC(C)(C)C)C(=O)c1cccc(Cl)c1 (stereo unspecified) [BUPROPION] | Not Active | Not Active | Not Active | – | – | Not Active | Not Active | Not Active | – | – | – | – | – | – | 5.64 | 5.85
25 | CN(C)CCCN1c2ccccc2Sc2ccc(Cl)cc21 [CHLORPROMAZINE] | – | Not Active | Not Active | – | – | Not Active | – | Not Active | – | – | – | – | – | – | 5.57 | 5.78
26 | CNCCCN1c2ccccc2CCc2ccccc21 [DESIPRAMINE] | – | Not Active | Not Active | Not Active | Not Active | Not Active | Not Active | Not Active | – | – | – | – | – | – | – | –
